In article PMC9573548, “Metabolic Profiling by GC-MS, In Vitro Biological Potential, and In Silico Molecular Docking Studies of Verbena officinalis” (Molecules, 2022):

Test system: T1, urease
T1 construct: jack bean is only the usual preparation; docking model 1E9Z (Helicobacter pylori) is not the assayed enzyme
Test: indophenol (phenol-hypochlorite) ammonia assay, […] nm
Type: biochemical
Settings: urea substrate (2.25% solution), phosphate buffer pH 7.0, room temperature, 15 min preincubation

## NC(=O)NO [hydroxy urea]
  Urease IC50: 9.8 ± 1.20 µg/mL
